Data as given in article PMC7816196, “Antitubercular 2-Pyrazolylpyrimidinones: Structure–Activity Relationship and Mode-of-Action Studies” (Journal of Medicinal Chemistry, 2021).

Legend:
Assay type in all cases: cell-based, Mycobacterium tuberculosis
MmpL3 F255L = system: MmpL3 F255L
MmpL3 G596R = system: MmpL3 G596R
MmpL3 V681 = system: MmpL3 V681

| Structure (SMILES) | MmpL3 F255L MIC (MmpL3 F255L) | MmpL3 G596R MIC (MmpL3 G596R) | MmpL3 V681 MIC (MmpL3 V681) |
| --- | --- | --- | --- |
| Cc1cc(Nc2ccc(F)cc2)n(-c2nc(C(F)(F)F)cc(=O)[nH]2)n1 [Compound 40, 2-(5-((4-Fluorophenyl)amino)-3-methyl-1H-pyrazol-1-yl)-6-(trifluoromethyl)pyrimidin-4(3H)-one] | >200 µM |  |  |
| CC(=O)Nc1cc(C)nn1-c1nc(-c2ccccc2)cc(=O)[nH]1 [Compound 15, N-(3-Methyl-1-(4-oxo-6-phenyl-1,4-dihydropyrimidin-2-yl)-1H-pyrazol-5-yl)acetamide] | >200 µM | >200 µM | >200 µM |
